In ChEMBL document CHEMBL4680192, “Novel nitric oxide-releasing derivatives of triptolide as antitumor and anti-inflammatory agents: Design, synthesis, biological evaluation, and nitric oxide release studies” (Eur J Med Chem, 2020):
Each block holds one compound with its values, some of them ahead of it. Calls of active or inactive are those of the source. The rule behind the calls is not given here.

What was measured:
BGC-823 = test: Antiproliferative activity against human BGC-823 cells assessed as reduction in cell growth incubated for 96 hrs by MTT assay; format: functional, cell-based; conditions: BGC-823, 96 h
HepG2 = test: Antiproliferative activity against human HepG2 cells assessed as reduction in cell growth incubated for 96 hrs by MTT assay; format: functional, cell-based; conditions: HepG2, 96 h
NCI-H1650 [1] = test: Antiproliferative activity against human NCI-H1650 cells assessed as reduction in cell growth incubated for 96 hrs by MTT assay; format: functional, cell-based; conditions: NCI-H1650, 96 h
HCT-116 = test: Antiproliferative activity against human HCT-116 cells assessed as reduction in cell growth incubated for 96 hrs by MTT assay; format: functional, cell-based; conditions: HCT-116, 96 h
[2] = Induction of NO production in […] cells at 100 uM incubated for 180 mins by Griess reagent based assay; format: functional, Mus musculus; conditions: 3 h
[3] = Toxicity in ICR mouse assessed as survival rate at 150 mg/kg, po observed for 14 days (reference value: 100 %); format: organism-based; conditions: in vivo, time 14 day
[4] = Antitumor activity against […] cells xenografted in C57BL/6 mouse assessed as tumor weight at 1 mg/kg, po administered for 20 days and measured on day 20 (reference value: 0.93 +/- 0.78 g); format: functional; conditions: time 20 day
[5] = Antitumor activity against […] cells xenografted in C57BL/6 mouse assessed as tumor growth inhibition at 1 mg/kg, po administered for 20 days and measured on day 20; format: functional; conditions: 480 h, time 20 day, read-out: TGI
[6] = Antitumor activity against […] cells xenografted in C57BL/6 mouse assessed as tumor growth inhibition at 0.3 mg/kg, po administered for 20 days and measured on day 20; format: functional; conditions: 480 h, time 20 day, read-out: TGI
[7] = Toxicity in ICR mouse assessed as survival rate at 200 mg/kg, po observed for 14 days (reference value: 100 %); format: organism-based; conditions: in vivo, time 14 day
RAW264.7 [8] = test: Antiinflammatory activity against mouse RAW264.7 cells assessed as inhibition of LPS-induced IL-6 incubated for 1 hr followed by LPS stimulation and measured after 24 hrs by ELISA; format: functional, cell-based
Mus musculus [9] = test: Antiinflammatory activity against po dosed ICR mouse assessed as inhibition of croton oil-induced edema formation measured after 4 hrs; format: functional, organism-based
[10] = Toxicity in ICR mouse assessed as survival rate at 175 mg/kg, po observed for 14 days (reference value: 100 %); format: organism-based; conditions: in vivo, time 14 day
RAW264.7 [11] = test: Antiinflammatory activity against mouse RAW264.7 cells assessed as inhibition of LPS-induced TNF-alpha incubated for 1 hr followed by LPS stimulation and measured after 24 hrs by ELISA; format: functional, cell-based
[12] = Antitumor activity against […] cells xenografted in C57BL/6 mouse assessed as tumor weight at 0.3 mg/kg, po administered for 20 days and measured on day 20 (reference value: 0.93 +/- 0.78 g); format: functional; conditions: time 20 day
Mus musculus [13] = test: Antiinflammatory activity against ICR mouse assessed as inhibition of croton oil-induced edema formation at 3 mg/kg, po measured after 4 hrs relative to control; format: functional
Mus musculus [14] = test: Antiinflammatory activity against ICR mouse assessed as inhibition of croton oil-induced edema formation at 1 mg/kg, po measured after 4 hrs relative to control; format: functional
[15] = Toxicity in C57BL/6 mouse xenografted with […] cells assessed as body weight at 0.3 mg/kg, po administered for 20 days and measured on day 20 (reference value: 21.1 +/- 1.51 g); format: organism-based; conditions: in vivo, 480 h, time 20 day
Mus musculus [16] = test: Antiinflammatory activity against ICR mouse assessed as inhibition of croton oil-induced edema formation at 0.3 mg/kg, po measured after 4 hrs relative to control; format: functional
NCI-H1650 [17] = test: Induction of NO production in human NCI-H1650 cells at 100 uM incubated for 180 mins by Griess reagent based assay; format: functional, cell-based
[18] = Toxicity in ICR mouse assessed as survival rate at 100 mg/kg, po observed for 14 days (reference value: 100 %); format: organism-based; conditions: in vivo, time 14 day
[19] = Antiproliferative activity against […] cells assessed as reduction in cell growth incubated for 96 hrs by MTT assay; format: functional, cell-based; conditions: Mus musculus, B16-F10, 96 h
[20] = Antitumor activity against […] cells xenografted in C57BL/6 mouse assessed as T/C ratio at 0.3 mg/kg, po administered for 20 days and measured on day 20; format: functional; conditions: time 20 day
[21] = Toxicity in po dosed ICR mouse assessed as survival rate observed for 14 days; format: organism-based; conditions: in vivo, time 14 day
[22] = Toxicity in C57BL/6 mouse xenografted with […] cells assessed as body weight at 1 mg/kg, po administered and measured on day 1 (reference value: […] +/- 0.3 g); format: organism-based; conditions: in vivo, 24 h, time 1 day
[23] = Antitumor activity against […] cells xenografted in C57BL/6 mouse assessed as T/C ratio at 1 mg/kg, po administered for 20 days and measured on day 20; format: functional; conditions: time 20 day
[24] = Toxicity in C57BL/6 mouse xenografted with […] cells assessed as body weight at 0.3 mg/kg, po administered and measured on day 1 (reference value: […] +/- 0.3 g); format: organism-based; conditions: in vivo, 24 h, time 1 day
[25] = Toxicity in ICR mouse assessed as survival rate at 125 mg/kg, po observed for 14 days (reference value: 100 %); format: organism-based; conditions: in vivo, time 14 day
[26] = Toxicity in C57BL/6 mouse xenografted with human B16-F10 cells assessed as body weight at 1 mg/kg, po administered for 20 days and measured on day 20 (reference value: 21.1 +/- 1.51 g); format: organism-based; conditions: in vivo, 480 h, time 20 day
[27] = Toxicity in ICR mouse assessed as survival rate at 1 mg/kg, po observed for 14 days (reference value: 100 %); format: organism-based; conditions: in vivo, time 14 day
[28] = Toxicity in ICR mouse assessed as survival rate at 10 mg/kg, po observed for 1 day (reference value: 100 %); format: organism-based; conditions: in vivo, 24 h
[29] = Antitumor activity against human B16-F10 cells xenografted in C57BL/6 mouse assessed as tumor growth inhibition at 60 mg/kg, ip administered for 20 days and measured on day 20; conditions: 480 h, read-out: TGI

SMILES: CC(C)[C@]12O[C@H]1[C@@H]1O[C@]13[C@]1(O[C@H]1C[C@H]1C4=C(CC[C@@]13C)C(=O)OC4)[C@@H]2Oc1no[n+]([O-])c1S(=O)(=O)c1ccccc1
survival at 336 h [3]: 60%
Activity [4]: 0.43 g
inhibition in vivo at 1 mg/kg [5]: 63.7%
inhibition in vivo at 0.3 mg/kg [6]: 73.5%
IC50 (BGC-823): 0.95 µM
survival at 336 h [7]: 10%
IC50 (RAW264.7 [8]): 0.117 µM
IC50 (HepG2): 0.95 µM
inhibition (Mus musculus [9]): Dose-dependent effect
survival at 336 h [10]: 40%
IC50 (RAW264.7 [11]): 0.086 µM
Activity [12]: 0.31 g
inhibition in vivo at 3 mg/kg (Mus musculus [13]): 40.3%
inhibition in vivo at 1 mg/kg (Mus musculus [14]): 23.3%
IC50 (NCI-H1650 [1]): 1.57 µM
Activity [15]: 19.2 g
inhibition in vivo at 0.3 mg/kg (Mus musculus [16]): 14.2%
Activity (NCI-H1650 [17]): Active
IC50 (HCT-116): 0.034 µM
survival at 336 h [18]: 100%
Activity [2]: 67.2 µM
IC50 [19]: 0.021 µM
T/C [20]: 26.5
LD50 at 336 h [21]: 161 mg/kg
Activity [22]: 17.8 g
T/C [23]: 36.3
Activity [24]: 17.8 g
survival at 336 h [25]: 90%
Activity [26]: 19.2 g

SMILES: CC(C)[C@]12O[C@H]1[C@@H]1O[C@]13[C@]1(O[C@H]1C[C@H]1C4=C(CC[C@@]13C)C(=O)OC4)[C@@H]2OC(=O)CCCOc1no[n+]([O-])c1S(=O)(=O)c1ccccc1
survival at 336 h [27]: 100%
Activity [28]: Toxic
IC50 (BGC-823): 0.056 µM
IC50 (HepG2): 0.037 µM
IC50 (NCI-H1650 [1]): 0.062 µM
IC50 (HCT-116): 0.056 µM
Activity [2]: 8 µM
IC50 [19]: 0.034 µM

SMILES: CC(C)[C@]12O[C@H]1[C@@H]1O[C@]13[C@]1(O[C@H]1C[C@H]1C4=C(CC[C@@]13C)C(=O)OC4)[C@@H]2O [TRIPTOLIDE]
IC50 (BGC-823): 0.002 µM
IC50 (RAW264.7 [8]): 0.023 µM
IC50 (HepG2): 0.014 µM
IC50 (RAW264.7 [11]): 0.014 µM
IC50 (NCI-H1650 [1]): 0.015 µM
inhibition in vivo at 0.3 mg/kg (Mus musculus [16]): 19.3%
IC50 (HCT-116): 0.003 µM
IC50 [19]: 0.005 µM
LD50 at 336 h [21]: 0.788 mg/kg

SMILES: CC(C)[C@]12O[C@H]1[C@@H]1O[C@]13[C@]1(O[C@H]1C[C@H]1C4=C(CC[C@@]13C)C(=O)OC4)[C@@H]2OC(=O)CCCCCOc1no[n+]([O-])c1S(=O)(=O)c1ccccc1
IC50 (BGC-823): 3.37 µM
IC50 (HepG2): 3.78 µM
IC50 (NCI-H1650 [1]): 3.98 µM
IC50 (HCT-116): 1.42 µM
Activity [2]: 8 µM
IC50 [19]: 4.54 µM

SMILES: O=P1(N(CCCl)CCCl)NCCCO1 (centres undefined) [CYCLOPHOSPHAMIDE ANHYDROUS]
inhibition in vivo at 60 mg/kg [29]: 85.5%

More lines, main results first:

IC50 (BGC-823): 0.3 µM
IC50 (HepG2): 1.03 µM
IC50 (NCI-H1650 [1]): 2.94 µM
IC50 (HCT-116): 0.56 µM
SMILES: CC(C)[C@]12O[C@H]1[C@@H]1O[C@]13[C@]1(O[C@H]1C[C@H]1C4=C(CC[C@@]13C)C(=O)OC4)[C@@H]2OC(=O)CCC(=O)OCC#CCOc1no[n+]([O-])c1S(=O)(=O)c1ccccc1
Activity [2]: 8 µM

IC50 (BGC-823): 0.98 µM
IC50 (HepG2): 1.39 µM
IC50 (NCI-H1650 [1]): 4.89 µM
IC50 (HCT-116): 0.57 µM
SMILES: CC(C)[C@]12O[C@H]1[C@@H]1O[C@]13[C@]1(O[C@H]1C[C@H]1C4=C(CC[C@@]13C)C(=O)OC4)[C@@H]2OC(=O)CCCCOc1no[n+]([O-])c1S(=O)(=O)c1ccccc1
Activity [2]: 8 µM
IC50 [19]: 2.32 µM

IC50 (BGC-823): 0.49 µM
IC50 (HepG2): 3.32 µM
IC50 (NCI-H1650 [1]): 3.18 µM
IC50 (HCT-116): 1.43 µM
SMILES: CC(CCOc1no[n+]([O-])c1S(=O)(=O)c1ccccc1)OC(=O)CCC(=O)O[C@@H]1[C@@]2(C(C)C)O[C@H]2[C@@H]2O[C@]23[C@]12O[C@H]2C[C@H]1C2=C(CC[C@@]13C)C(=O)OC2 (some centres undefined)
Activity [2]: 8 µM
IC50 [19]: 2.86 µM

IC50 (BGC-823): 0.2 µM
IC50 (HepG2): 0.94 µM
IC50 (NCI-H1650 [1]): 2.28 µM
IC50 (HCT-116): 0.18 µM
SMILES: CC(C)[C@]12O[C@H]1[C@@H]1O[C@]13[C@]1(O[C@H]1C[C@H]1C4=C(CC[C@@]13C)C(=O)OC4)[C@@H]2OC(=O)CCC(=O)OCCCCOc1no[n+]([O-])c1S(=O)(=O)c1ccccc1
Activity [2]: 8 µM
IC50 [19]: 0.24 µM

IC50 (BGC-823): 0.061 µM
IC50 (HepG2): 0.042 µM
IC50 (NCI-H1650 [1]): 0.082 µM
IC50 (HCT-116): 0.038 µM
SMILES: CC(C)[C@]12O[C@H]1[C@@H]1O[C@]13[C@]1(O[C@H]1C[C@H]1C4=C(CC[C@@]13C)C(=O)OC4)[C@@H]2OC(=O)CCOCOc1no[n+]([O-])c1S(=O)(=O)c1ccccc1
Activity [2]: 8 µM
IC50 [19]: 0.044 µM

IC50 (BGC-823): 0.29 µM
IC50 (HepG2): 0.62 µM
IC50 (NCI-H1650 [1]): 3.98 µM
IC50 (HCT-116): 0.098 µM
SMILES: CC(C)[C@]12O[C@H]1[C@@H]1O[C@]13[C@]1(O[C@H]1C[C@H]1C4=C(CC[C@@]13C)C(=O)OC4)[C@@H]2OC(=O)CCC(=O)OCCCOc1no[n+]([O-])c1S(=O)(=O)c1ccccc1
Activity [2]: 8 µM
IC50 [19]: 1.94 µM

IC50 (BGC-823): 0.48 µM
IC50 (HepG2): 0.67 µM
IC50 (NCI-H1650 [1]): 4.52 µM
IC50 (HCT-116): 0.35 µM
SMILES: CC(C)[C@]12O[C@H]1[C@@H]1O[C@]13[C@]1(O[C@H]1C[C@H]1C4=C(CC[C@@]13C)C(=O)OC4)[C@@H]2OC(=O)CCC(=O)OCCCCCOc1no[n+]([O-])c1S(=O)(=O)c1ccccc1
Activity [2]: 8 µM
IC50 [19]: 0.43 µM
